Test results published in ChEMBL document CHEMBL1157566, “Cytotoxic and anti-inflammatory cembranoids from the Dongsha Atoll soft coral Sarcophyton crassocaule” (2010).
Converted amounts (≈) assume the structure as drawn.

Tests used:
Format in all cases: functional
RAW264.7 [1] = test: Antiinflammatory activity in mouse RAW264.7 cells assessed as inhibition of LPS-stimulated iNOS protein expression by measuring iNOS protein level at 10 uM by Western blot relative to untreated control
MCF7 = test: Cytotoxicity against human MCF7 cells by MTT assay; conditions: read-out: ED50 (the source's name)
WiDr = test: Cytotoxicity against human WiDr cells by MTT assay; conditions: read-out: ED50 (the source's name)
HEp-2 = test: Cytotoxicity against human Hep2 cells by MTT assay; conditions: read-out: ED50 (the source's name)
Daoy = test: Cytotoxicity against human DaOY cells by MTT assay; conditions: read-out: ED50 (the source's name)
RAW264.7 [2] = test: Antiinflammatory activity in mouse RAW264.7 cells assessed as inhibition of LPS-stimulated COX2 protein expression by measuring COX2 protein level at 10 uM by Western blot relative to untreated control; design: scale not given: the % may be the effect or the level left

| SMILES | iNOS protein level relative to control (RAW264.7 [1]) [%] | EC50 (MCF7) [µg/mL] | EC50 (WiDr) [µg/mL] | EC50 (HEp-2) [µg/mL] | EC50 (Daoy) [µg/mL] | Activity (RAW264.7 [2]) [%] |
| --- | --- | --- | --- | --- | --- | --- |
| C=C1C(=O)O[C@H]2[C@H]1C[C@@H]1O[C@@]1(C)CC/C=C(\C)CC/C=C(\C)[C@@H]2OC(C)=O | 6.2 | – | – | – | – | – |
| CO[C@@]12[C@H](COC(N)=O)C3=C(C(=O)C(C)=C(N)C3=O)N1C[C@@H]1N[C@@H]12 [MITOMYCIN] | – | 0.14 (≈ 0.419 µM) | 0.15 (≈ 0.449 µM) | 0.07 (≈ 0.209 µM) | 0.14 (≈ 0.419 µM) | – |
| C=C1C(=O)O[C@@H]2[C@@H]1C[C@H](O)[C@@]1(C)CC[C@@H](O1)C(=C)CC/C=C(\C)[C@@H]2OC(C)=O [SARCOCRASSOCOLIDE A] | 13.7 | 4.2 (≈ 10.8 µM) | 4.2 (≈ 10.8 µM) | 6.2 (≈ 15.9 µM) | 8.8 (≈ 22.5 µM) | – |
| C=C1CC/C=C(\C)[C@H](OC(C)=O)[C@@H]2OC(=O)C(=C)[C@H]2C[C@H](O)[C@@]2(C)CC[C@@H]1O2 [SARCOCRASSOCOLIDE B] | 13.3 | 3.2 (≈ 8.2 µM) | 3.2 (≈ 8.2 µM) | 4.5 (≈ 11.5 µM) | 5.6 (≈ 14.3 µM) | – |
| C=C1C(=O)O[C@H]2C/C(C)=C/CCC(=C)[C@H]3CC[C@@](C)(O3)[C@@H](O)C[C@H]12 [SARCOCRASSOCOLIDE C] | 4.6 | 2 (≈ 6.02 µM) | 1.2 (≈ 3.61 µM) | 2.6 (≈ 7.82 µM) | 3.2 (≈ 9.63 µM) | – |
| C=C1CC/C=C(\C)C[C@@H]2OC(=O)C(=C)[C@H]2C[C@H](O)[C@@]2(C)CC[C@@H]1O2 [SARCOCRASSOCOLIDE D] | 7 | 4.1 (≈ 12.3 µM) | 1.8 (≈ 5.41 µM) | 4 (≈ 12 µM) | 5.4 (≈ 16.2 µM) | – |
| C=C1C(=O)O[C@@H]2C/C(C)=C/CC/C(C)=C/CC[C@]3(C)O[C@H]3C[C@@H]12 [SARCOCRASSOLIDE] | 1.1 | – | – | – | – | 3.9 |
